Tested on: MCF7 complex spheroid growth, % test/control
Experiment: Anticancer human tumor MCF7 cell line growth inhibition [Asc];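 also: spheroids exposed to compounds for 7 days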;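 as to viability, T/C: 100% = DMSO vehicle control wells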
Conditions: for IC50: curve of first compound; for viability, T/C: stronger effect = lower value
Method in brief: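 Complex spheroids combining tumor cells with HUVEC endothelial cells and human MSCs, at 37 degrees C, 5% CO2; agents tested alone or combined, half-log dilutions from at or near clinical Cmax, or 10 microM if Cmax unknown.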

[1] = second compound 0.00949 µM, first compound 0.00316 µM
[2] = second compound 0.00949 µM, first compound 0.01 µM
[3] = second compound 0.00949 µM, first compound 0.0316 µM
[4] = second compound 0.00949 µM, first compound 0.1 µM
[5] = second compound 0.03 µM, first compound 0.00316 µM
[6] = second compound 0.03 µM, first compound 0.01 µM
[7] = second compound 0.03 µM, first compound 0.0316 µM
[8] = second compound 0.03 µM, first compound 0.1 µM
[9] = second compound 0.0949 µM, first compound 0.00316 µM
[10] = second compound 0.0949 µM, first compound 0.01 µM
[11] = second compound 0.0949 µM, first compound 0.0316 µM
[12] = second compound 0.0949 µM, first compound 0.1 µM
[13] = second compound 0.3 µM, first compound 0.00316 µM
[14] = second compound 0.3 µM, first compound 0.01 µM
[15] = second compound 0.3 µM, first compound 0.0316 µM
[16] = second compound 0.3 µM, first compound 0.1 µM
[17] = second compound 0.949 µM, first compound 0.00316 µM
[18] = second compound 0.949 µM, first compound 0.01 µM
[19] = second compound 0.949 µM, first compound 0.0316 µM
[20] = second compound 0.949 µM, first compound 0.1 µM
[21] = second compound 3 µM, first compound 0.00316 µM
[22] = second compound 3 µM, first compound 0.01 µM
[23] = second compound 3 µM, first compound 0.0316 µM
[24] = second compound 3 µM, first compound 0.1 µM

`COc1c(OCCCN2CCOCC2)ccc2c3n(c(=NC(=O)c4cnc(N)nc4)nc12)CCN3` + CCN1C(C(=O)NC23CCC(C(=O)O)(CC2)CC3)C(c2cccc(Cl)c2F)C2(C(=O)Nc3cc(Cl)ccc32)C12CCCCC2 was tested, and the IC50 (second compound 0.00949 µM) was 48.4 nM, the IC50 (second compound 0.03 µM) was 42.4 nM and the IC50 (second compound 0.0949 µM) was < 3.16 nM. The IC50 (second compound 0.3 µM) was < 3.16 nM, the IC50 (second compound 0.949 µM) was < 3.16 nM and the IC50 (second compound 3 µM) was < 3.16 nM. The viability, T/C [1] was 98.8%, the viability, T/C [2] was 70% and the viability, T/C [3] was 54.6%. It also gave a viability, T/C [4] of 49%, a viability, T/C (second compound 0.00949 µM, first compound 0.316 µM) of 14.4% and a viability, T/C (second compound 0.00949 µM, first compound 1 µM) of 9.39%. The viability, T/C [5] was 78.7%, the viability, T/C [6] was 77.8% and the viability, T/C [7] was 56.1%. The viability, T/C [8] was 29%, the viability, T/C (second compound 0.03 µM, first compound 0.316 µM) was 7.5% and the viability, T/C (second compound 0.03 µM, first compound 1 µM) was 9%. For the same molecule, the viability, T/C [9] was 47.8%, the viability, T/C [10] was 50.3% and the viability, T/C [11] was 36.6%. It also gave a viability, T/C [12] of 18.4%, a viability, T/C (second compound 0.0949 µM, first compound 0.316 µM) of 8.59% and a viability, T/C (second compound 0.0949 µM, first compound 1 µM) of 8.82%. For the same molecule, the viability, T/C [13] was 26.4%, the viability, T/C [14] was 21.5% and the viability, T/C [15] was 12.6%. It also gave a viability, T/C [16] of 4.54%, a viability, T/C (second compound 0.3 µM, first compound 0.316 µM) of 7.49% and a viability, T/C (second compound 0.3 µM, first compound 1 µM) of 8.96%. It also gave a viability, T/C [17] of 17.9%, a viability, T/C [18] of 10.1% and a viability, T/C [19] of 4.6%. It also gave a viability, T/C [20] of 6.32%, a viability, T/C (second compound 0.949 µM, first compound 0.316 µM) of 8.83% and a viability, T/C (second compound 0.949 µM, first compound 1 µM) of 8.95%. It also gave a viability, T/C [21] of 9.35%, a viability, T/C [22] of 5.25% and a viability, T/C [23] of 6.94%. For the same molecule, the viability, T/C [24] was 6.59%, the viability, T/C (second compound 3 µM, first compound 0.316 µM) was 9.64% and the viability, T/C (second compound 3 µM, first compound 1 µM) was 10%.

For `NC(=O)C(=Cn1cnc(-c2cc(C(F)(F)F)cc(C(F)(F)F)c2)n1)c1cncnc1` + CCN1C(C(=O)NC23CCC(C(=O)O)(CC2)CC3)C(c2cccc(Cl)c2F)C2(C(=O)Nc3cc(Cl)ccc32)C12CCCCC2, the IC50 (second compound 0.00949 µM) was 50 nM, the IC50 (second compound 0.03 µM) was 15.3 nM and the IC50 (second compound 0.0949 µM) was < 0.949 nM. For the same molecule, the IC50 (second compound 0.3 µM) was < 0.949 nM, the IC50 (second compound 0.949 µM) was < 0.949 nM and the IC50 (second compound 3 µM) was < 0.949 nM. The viability, T/C (second compound 0.00949 µM, first compound 0.000949 µM) was 109%, the viability, T/C (second compound 0.00949 µM, first compound 0.003 µM) was 107% and the viability, T/C (second compound 0.00949 µM, first compound 0.00949 µM) was 86.7%. The viability, T/C (second compound 0.00949 µM, first compound 0.03 µM) was 73.6%, the viability, T/C (second compound 0.00949 µM, first compound 0.0949 µM) was 23.7% and the viability, T/C (second compound 0.00949 µM, first compound 0.3 µM) was 14.1%. For the same molecule, the viability, T/C (second compound 0.03 µM, first compound 0.000949 µM) was 89.2%, the viability, T/C (second compound 0.03 µM, first compound 0.003 µM) was 75.2% and the viability, T/C (second compound 0.03 µM, first compound 0.00949 µM) was 55.6%. The viability, T/C (second compound 0.03 µM, first compound 0.03 µM) was 44.4%, the viability, T/C (second compound 0.03 µM, first compound 0.0949 µM) was 17.8% and the viability, T/C (second compound 0.03 µM, first compound 0.3 µM) was 14.3%. It also gave a viability, T/C (second compound 0.0949 µM, first compound 0.000949 µM) of 45.5%, a viability, T/C (second compound 0.0949 µM, first compound 0.003 µM) of 48% and a viability, T/C (second compound 0.0949 µM, first compound 0.00949 µM) of 30.4%. For the same molecule, the viability, T/C (second compound 0.0949 µM, first compound 0.03 µM) was 12.4%, the viability, T/C (second compound 0.0949 µM, first compound 0.0949 µM) was 9.36% and the viability, T/C (second compound 0.0949 µM, first compound 0.3 µM) was 12.6%. The viability, T/C (second compound 0.3 µM, first compound 0.000949 µM) was 25.9%, the viability, T/C (second compound 0.3 µM, first compound 0.003 µM) was 22.5% and the viability, T/C (second compound 0.3 µM, first compound 0.00949 µM) was 16%. The viability, T/C (second compound 0.3 µM, first compound 0.03 µM) was 13.9%, the viability, T/C (second compound 0.3 µM, first compound 0.0949 µM) was 11.8% and the viability, T/C (second compound 0.3 µM, first compound 0.3 µM) was 13.4%. It also gave a viability, T/C (second compound 0.949 µM, first compound 0.000949 µM) of 14.8%, a viability, T/C (second compound 0.949 µM, first compound 0.003 µM) of 11% and a viability, T/C (second compound 0.949 µM, first compound 0.00949 µM) of 9.57%. It also gave a viability, T/C (second compound 0.949 µM, first compound 0.03 µM) of 10.6%, a viability, T/C (second compound 0.949 µM, first compound 0.0949 µM) of 14% and a viability, T/C (second compound 0.949 µM, first compound 0.3 µM) of 14.7%. For the same molecule, the viability, T/C (second compound 3 µM, first compound 0.000949 µM) was 13.1%, the viability, T/C (second compound 3 µM, first compound 0.003 µM) was 10.4% and the viability, T/C (second compound 3 µM, first compound 0.00949 µM) was 10.3%. It also gave a viability, T/C (second compound 3 µM, first compound 0.03 µM) of 13.8%, a viability, T/C (second compound 3 µM, first compound 0.0949 µM) of 16.1% and a viability, T/C (second compound 3 µM, first compound 0.3 µM) of 20.5%.

In the case of `NC1CCC(NC2CC2c2ccccc2)CC1` (stereo unspecified) + CCN1C(C(=O)NC23CCC(C(=O)O)(CC2)CC3)C(c2cccc(Cl)c2F)C2(C(=O)Nc3cc(Cl)ccc32)C12CCCCC2, the IC50 (second compound 0.00949 µM) is reported as > 100 nM, the IC50 (second compound 0.03 µM) is reported as > 100 nM and the IC50 (second compound 0.0949 µM) is reported as > 100 nM. The IC50 (second compound 0.3 µM) was < 0.316 nM, the IC50 (second compound 0.949 µM) was < 0.316 nM and the IC50 (second compound 3 µM) was < 0.316 nM. It also gave a viability, T/C (second compound 0.00949 µM, first compound 0.000316 µM) of 131%, a viability, T/C (second compound 0.00949 µM, first compound 0.001 µM) of 116% and a viability, T/C [1] of 131%. The viability, T/C [2] was 154%, the viability, T/C [3] was 126% and the viability, T/C [4] was 127%. The viability, T/C (second compound 0.03 µM, first compound 0.000316 µM) was 108%, the viability, T/C (second compound 0.03 µM, first compound 0.001 µM) was 113% and the viability, T/C [5] was 123%. It also gave a viability, T/C [6] of 101%, a viability, T/C [7] of 107% and a viability, T/C [8] of 74.8%. It also gave a viability, T/C (second compound 0.0949 µM, first compound 0.000316 µM) of 65.9%, a viability, T/C (second compound 0.0949 µM, first compound 0.001 µM) of 57.9% and a viability, T/C [9] of 43.3%. The viability, T/C [10] was 51.7%, the viability, T/C [11] was 58.1% and the viability, T/C [12] was 56.8%. The viability, T/C (second compound 0.3 µM, first compound 0.000316 µM) was 39.4%, the viability, T/C (second compound 0.3 µM, first compound 0.001 µM) was 38.8% and the viability, T/C [13] was 43.8%. The viability, T/C [14] was 40%, the viability, T/C [15] was 34.1% and the viability, T/C [16] was 43%. The viability, T/C (second compound 0.949 µM, first compound 0.000316 µM) was 30.3%, the viability, T/C (second compound 0.949 µM, first compound 0.001 µM) was 26.9% and the viability, T/C [17] was 29.1%. For the same molecule, the viability, T/C [18] was 25.7%, the viability, T/C [19] was 29.1% and the viability, T/C [20] was 23.8%. It also gave a viability, T/C (second compound 3 µM, first compound 0.000316 µM) of 18.3%, a viability, T/C (second compound 3 µM, first compound 0.001 µM) of 18.6% and a viability, T/C [21] of 19.9%. For the same molecule, the viability, T/C [22] was 15.5%, the viability, T/C [23] was 16.5% and the viability, T/C [24] was 19.6%.
